Tested on: HUVEC/MSC spheroids viability
Test: Human HUVEC/MSC cell line growth inhibition [KRAS2];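 for viability, T/C: percent of DMSO vehicle control luminescence so 100% = untreated viability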
Conditions: for IC50: curve of first compound; for viability, T/C: stronger effect = lower value
Procedure, shortened: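 HUVEC + hMSC stromal spheroids only, no malignant cells; 37 °C, 5% CO2. Drugs singly and in pairs, half-log series down from clinical Cmax (max 10 microM if Cmax undetermined).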

[1] = second compound 0.0316 µM, first compound 0.0316 µM
[2] = second compound 0.0316 µM, first compound 0.1 µM
[3] = second compound 0.0316 µM, first compound 0.316 µM
[4] = second compound 0.0316 µM, first compound 1 µM
[5] = second compound 0.0316 µM, first compound 3.16 µM
[6] = second compound 0.0316 µM, first compound 10 µM
[7] = second compound 0.1 µM, first compound 0.0316 µM
[8] = second compound 0.1 µM, first compound 0.1 µM
[9] = second compound 0.1 µM, first compound 0.316 µM
[10] = second compound 0.1 µM, first compound 1 µM
[11] = second compound 0.1 µM, first compound 3.16 µM
[12] = second compound 0.1 µM, first compound 10 µM
[13] = second compound 0.316 µM, first compound 0.0316 µM
[14] = second compound 0.316 µM, first compound 0.1 µM
[15] = second compound 0.316 µM, first compound 0.316 µM
[16] = second compound 0.316 µM, first compound 1 µM
[17] = second compound 0.316 µM, first compound 3.16 µM
[18] = second compound 0.316 µM, first compound 10 µM
[19] = second compound 1 µM, first compound 0.0316 µM
[20] = second compound 1 µM, first compound 0.1 µM
[21] = second compound 1 µM, first compound 0.316 µM
[22] = second compound 1 µM, first compound 1 µM
[23] = second compound 1 µM, first compound 3.16 µM
[24] = second compound 1 µM, first compound 10 µM
[25] = second compound 3.16 µM, first compound 0.0316 µM
[26] = second compound 3.16 µM, first compound 0.1 µM
[27] = second compound 3.16 µM, first compound 0.316 µM
[28] = second compound 3.16 µM, first compound 1 µM
[29] = second compound 3.16 µM, first compound 3.16 µM
[30] = second compound 3.16 µM, first compound 10 µM
[31] = second compound 10 µM, first compound 0.0316 µM
[32] = second compound 10 µM, first compound 0.1 µM
[33] = second compound 10 µM, first compound 0.316 µM
[34] = second compound 10 µM, first compound 1 µM
[35] = second compound 10 µM, first compound 3.16 µM
[36] = second compound 10 µM, first compound 10 µM

Work on `CC1COCCN1c1cc(-c2ccnn2C)c2ccnc(-c3ccn[nH]3)c2n1` (stereo not drawn) + COc1cc2nc(C)nc(NC(C)c3cc(N)cc(C(F)(F)F)c3)c2cc1OC1CCOC1 yielded an IC50 (second compound 0.0316 µM) of 1740 nM, an IC50 (second compound 0.1 µM) of 908 nM and an IC50 (second compound 0.316 µM) greater than 3000 nM. It also gave an IC50 (second compound 1 µM) of 1040 nM, an IC50 (second compound 3.16 µM) of 2520 nM and an IC50 (second compound 10 µM) greater than 3000 nM. For the same compound, the viability, T/C (second compound 0.0316 µM, first compound 0.00949 µM) was 98.9%, the viability, T/C (second compound 0.0316 µM, first compound 0.03 µM) was 92.4% and the viability, T/C (second compound 0.0316 µM, first compound 0.0949 µM) was 86.8%. For the same compound, the viability, T/C (second compound 0.0316 µM, first compound 0.3 µM) was 75.7%, the viability, T/C (second compound 0.0316 µM, first compound 0.949 µM) was 55.9% and the viability, T/C (second compound 0.0316 µM, first compound 3 µM) was 43.9%. The viability, T/C (second compound 0.1 µM, first compound 0.00949 µM) was 83.2%, the viability, T/C (second compound 0.1 µM, first compound 0.03 µM) was 81.1% and the viability, T/C (second compound 0.1 µM, first compound 0.0949 µM) was 79.7%. For the same compound, the viability, T/C (second compound 0.1 µM, first compound 0.3 µM) was 80.4%, the viability, T/C (second compound 0.1 µM, first compound 0.949 µM) was 48.8% and the viability, T/C (second compound 0.1 µM, first compound 3 µM) was 46.4%. It also gave a viability, T/C (second compound 0.316 µM, first compound 0.00949 µM) of 82.2%, a viability, T/C (second compound 0.316 µM, first compound 0.03 µM) of 95% and a viability, T/C (second compound 0.316 µM, first compound 0.0949 µM) of 80.3%. For the same compound, the viability, T/C (second compound 0.316 µM, first compound 0.3 µM) was 79.8%, the viability, T/C (second compound 0.316 µM, first compound 0.949 µM) was 47.6% and the viability, T/C (second compound 0.316 µM, first compound 3 µM) was 52.4%. It also gave a viability, T/C (second compound 1 µM, first compound 0.00949 µM) of 88.3%, a viability, T/C (second compound 1 µM, first compound 0.03 µM) of 89.8% and a viability, T/C (second compound 1 µM, first compound 0.0949 µM) of 95.8%. It also gave a viability, T/C (second compound 1 µM, first compound 0.3 µM) of 72.1%, a viability, T/C (second compound 1 µM, first compound 0.949 µM) of 53.3% and a viability, T/C (second compound 1 µM, first compound 3 µM) of 37.3%. For the same compound, the viability, T/C (second compound 3.16 µM, first compound 0.00949 µM) was 79%, the viability, T/C (second compound 3.16 µM, first compound 0.03 µM) was 94.1% and the viability, T/C (second compound 3.16 µM, first compound 0.0949 µM) was 93.2%. It also gave a viability, T/C (second compound 3.16 µM, first compound 0.3 µM) of 81.7%, a viability, T/C (second compound 3.16 µM, first compound 0.949 µM) of 59.5% and a viability, T/C (second compound 3.16 µM, first compound 3 µM) of 48.2%. For the same compound, the viability, T/C (second compound 10 µM, first compound 0.00949 µM) was 63.3%, the viability, T/C (second compound 10 µM, first compound 0.03 µM) was 72.6% and the viability, T/C (second compound 10 µM, first compound 0.0949 µM) was 65.2%. It also gave a viability, T/C (second compound 10 µM, first compound 0.3 µM) of 60.4%, a viability, T/C (second compound 10 µM, first compound 0.949 µM) of 59.4% and a viability, T/C (second compound 10 µM, first compound 3 µM) of 59%.
With `CC1OCC2(CCN(c3cnc(Sc4ccnc(N)c4Cl)c(N)n3)CC2)C1N` (stereo not drawn) + COc1cc2nc(C)nc(NC(C)c3cc(N)cc(C(F)(F)F)c3)c2cc1OC1CCOC1 the IC50 (second compound 0.0316 µM) was 6360 nM, the IC50 (second compound 0.1 µM) was 6220 nM and the IC50 (second compound 0.316 µM) was greater than 10000 nM. It also gave an IC50 (second compound 1 µM) of 6150 nM, an IC50 (second compound 3.16 µM) of 5190 nM and an IC50 (second compound 10 µM) of 3730 nM. The viability, T/C [1] was 101%, the viability, T/C [2] was 111% and the viability, T/C [3] was 91.8%. It also gave a viability, T/C [4] of 64.4%, a viability, T/C [5] of 70.6% and a viability, T/C [6] of 40.4%. The viability, T/C [7] was 115%, the viability, T/C [8] was 90.7% and the viability, T/C [9] was 76.8%. The viability, T/C [10] was 72.4%, the viability, T/C [11] was 63% and the viability, T/C [12] was 40.8%. It also gave a viability, T/C [13] of 80.7%, a viability, T/C [14] of 95.2% and a viability, T/C [15] of 88%. For the same compound, the viability, T/C [16] was 63.1%, the viability, T/C [17] was 60.2% and the viability, T/C [18] was 54.2%. The viability, T/C [19] was 83.6%, the viability, T/C [20] was 100% and the viability, T/C [21] was 67.5%. The viability, T/C [22] was 72.3%, the viability, T/C [23] was 57.9% and the viability, T/C [24] was 44.3%. For the same compound, the viability, T/C [25] was 82%, the viability, T/C [26] was 86.8% and the viability, T/C [27] was 86.9%. The viability, T/C [28] was 65%, the viability, T/C [29] was 59.2% and the viability, T/C [30] was 41.5%. The viability, T/C [31] was 68.7%, the viability, T/C [32] was 73.8% and the viability, T/C [33] was 69.8%. For the same compound, the viability, T/C [34] was 59%, the viability, T/C [35] was 56.7% and the viability, T/C [36] was 27%.
Work on `CCNC(=O)CC1N=C(c2ccc(Cl)cc2)c2cc(OC)ccc2-n2c(C)nnc21` (stereo not drawn) + COc1cc2nc(C)nc(NC(C)c3cc(N)cc(C(F)(F)F)c3)c2cc1OC1CCOC1 yielded an IC50 (second compound 0.0316 µM) greater than 10000 nM, an IC50 (second compound 0.1 µM) greater than 10000 nM and an IC50 (second compound 0.316 µM) greater than 10000 nM. For the same compound, the IC50 (second compound 1 µM) was greater than 10000 nM, the IC50 (second compound 3.16 µM) was greater than 10000 nM and the IC50 (second compound 10 µM) was greater than 10000 nM. For the same compound, the viability, T/C [1] was 89.6%, the viability, T/C [2] was 94% and the viability, T/C [3] was 94.3%. It also gave a viability, T/C [4] of 113%, a viability, T/C [5] of 114% and a viability, T/C [6] of 120%. It also gave a viability, T/C [7] of 78.7%, a viability, T/C [8] of 86.2% and a viability, T/C [9] of 89.3%. The viability, T/C [10] was 85.6%, the viability, T/C [11] was 124% and the viability, T/C [12] was 84.3%. For the same compound, the viability, T/C [13] was 86.4%, the viability, T/C [14] was 90.2% and the viability, T/C [15] was 105%. The viability, T/C [16] was 99.6%, the viability, T/C [17] was 89.5% and the viability, T/C [18] was 88.5%. It also gave a viability, T/C [19] of 89.8%, a viability, T/C [20] of 79.9% and a viability, T/C [21] of 73%. It also gave a viability, T/C [22] of 105%, a viability, T/C [23] of 100% and a viability, T/C [24] of 90%. For the same compound, the viability, T/C [25] was 73.5%, the viability, T/C [26] was 81.1% and the viability, T/C [27] was 75.9%. For the same compound, the viability, T/C [28] was 82.3%, the viability, T/C [29] was 84.6% and the viability, T/C [30] was 109%. For the same compound, the viability, T/C [31] was 60.6%, the viability, T/C [32] was 55.9% and the viability, T/C [33] was 69.5%. The viability, T/C [34] was 70%, the viability, T/C [35] was 82.1% and the viability, T/C [36] was 74.8%.
For `Cn1nccc1Nc1nccc(-c2cc3c(s2)C(C)(C)N(CCN2CCOCC2)C3=O)n1` + COc1cc2nc(C)nc(NC(C)c3cc(N)cc(C(F)(F)F)c3)c2cc1OC1CCOC1, the IC50 (second compound 0.0316 µM) was 2410 nM, the IC50 (second compound 0.1 µM) was 2320 nM and the IC50 (second compound 0.316 µM) was 2560 nM. It also gave an IC50 (second compound 1 µM) of 2570 nM, an IC50 (second compound 3.16 µM) of 2590 nM and an IC50 (second compound 10 µM) of 2220 nM. The viability, T/C [1] was 104%, the viability, T/C [2] was 124% and the viability, T/C [3] was 124%. The viability, T/C [4] was 108%, the viability, T/C [5] was 32.1% and the viability, T/C [6] was 4.35%. For the same compound, the viability, T/C [7] was 90.2%, the viability, T/C [8] was 115% and the viability, T/C [9] was 110%. For the same compound, the viability, T/C [10] was 92.1%, the viability, T/C [11] was 34.4% and the viability, T/C [12] was 4.06%. The viability, T/C [13] was 108%, the viability, T/C [14] was 119% and the viability, T/C [15] was 107%. The viability, T/C [16] was 95%, the viability, T/C [17] was 39.9% and the viability, T/C [18] was 3.01%. The viability, T/C [19] was 85.6%, the viability, T/C [20] was 113% and the viability, T/C [21] was 113%. For the same compound, the viability, T/C [22] was 106%, the viability, T/C [23] was 37.8% and the viability, T/C [24] was 7.24%. For the same compound, the viability, T/C [25] was 92.5%, the viability, T/C [26] was 111% and the viability, T/C [27] was 121%. The viability, T/C [28] was 104%, the viability, T/C [29] was 38.5% and the viability, T/C [30] was 3.79%. The viability, T/C [31] was 72.5%, the viability, T/C [32] was 92.9% and the viability, T/C [33] was 93.5%. The viability, T/C [34] was 88.5%, the viability, T/C [35] was 33.6% and the viability, T/C [36] was 0.79%.

From PubChem BioAssay AID2060912 (Molecular Pharmacology Branch, DTP, NCI, 2025)
